From ChEMBL document CHEMBL4732096, “Design, synthesis and evaluation of calix[4]arene-based carbonyl amide derivatives with antitumor activities” (Eur J Med Chem, 2021) come the findings set out here.

A word on the inhibition: it is the share of the control response that was lost under treatment. In general, IC50 refers to the midpoint of a concentration-inhibition curve.

In data set [1] the test system is A549. Description: Antiproliferative activity against human A549 cells assessed as inhibition of cell growth at 10 uM measured after 72 hrs by MTT assay relative to control. It is filed as functional. (Formazan colour is commonly taken as a measure of viable cells.)
Data set [2] relates to A549. Put plainly: Antiproliferative activity against human A549 cells assessed as inhibition of cell growth measured after 72 hrs by MTT assay. Conditions: A549, 72 h. It is filed as functional, cell-based.
Data set [3] has as its system HT-29. Put plainly: Antiproliferative activity against human HT-29 cells assessed as inhibition of cell growth at 10 uM measured after 72 hrs by MTT assay relative to control. In kind it is functional.
For data set [4], the system named is MDA-MB-231. Put plainly: Antiproliferative activity against human MDA-MB-231 cells assessed as inhibition of cell growth measured after 72 hrs by MTT assay. It is filed as functional, cell-based. Conditions: MDA-MB-231, 72 h.
Data set [5] deals with MDA-MB-231. Description: Antiproliferative activity against human MDA-MB-231 cells assessed as inhibition of cell growth at 10 uM measured after 72 hrs by MTT assay relative to control. It is filed as functional.
For data set [6], the system named is HepG2. Description: Antiproliferative activity against human HepG2 cells assessed as inhibition of cell growth at 10 uM measured after 72 hrs by MTT assay relative to control. In kind it is functional.
The nature of data set [7]: Cytotoxicity against HUVEC cells assessed as inhibition of cell growth at 10 uM measured after 72 hrs by MTT assay. In kind it is cell-based. Conditions: human.
For data set [8], the system named is MCF7. Description: Antiproliferative activity against human MCF7 cells assessed as inhibition of cell growth at 10 uM measured after 72 hrs by MTT assay relative to control. In kind it is functional.

On to `CC(C)(C)c1cc2c(O)c(c1)Cc1cc(C(C)(C)C)cc(c1OC/C=C/C(=O)N(CCO)CCO)Cc1cc(C(C)(C)C)cc(c1O)Cc1cc(C(C)(C)C)cc(c1OC/C=C/C(=O)N(CCO)CCO)C2`, for which the inhibition at 10 µM in data set [1] amounted to 82%; in data set [3], 39.8%; in data set [5], 58.8%; in data set [6], 41%; in data set [8], 80.2%. Further, the IC50 in data set [2] amounted to 7.04 µM; in data set [4], 6.77 µM. Further, the inhibition at 72 h, 10 µM in data set [7] is less than 0%.
Regarding `CCC(Oc1c2cc(C(C)(C)C)cc1Cc1cc(C(C)(C)C)cc(c1O)Cc1cc(C(C)(C)C)cc(c1OC(CC)C(=O)NCCO)Cc1cc(C(C)(C)C)cc(c1O)C2)C(=O)NCCO` (centres undefined), the inhibition at 10 µM in data set [1] is 68.7%; in data set [3], 32.1%; in data set [5] it was 79.6%; in data set [6] it was 26.1%; in data set [8], less than 0%. The figures for the IC50 in data set [2] and in data set [4] were 2.22 µM and 0.92 µM, respectively. In addition, the inhibition at 72 h, 10 µM in data set [7] was 34.3%.
With `CC(C)(C)c1cc2c(O)c(c1)Cc1cc(C(C)(C)C)cc(c1OC/C=C/C(=O)NCCCO)Cc1cc(C(C)(C)C)cc(c1O)Cc1cc(C(C)(C)C)cc(c1OC/C=C/C(=O)NCCCO)C2`, the inhibition at 10 µM in data set [1] was determined as 63.3%; in data set [3], 36.1%; in data set [5] it was 61.5%; in data set [6], 9.5%; in data set [8], 48.2%. The IC50 in data set [2] turned out to be 3.59 µM; in data set [4], 5.2 µM. Moreover, the inhibition at 72 h, 10 µM in data set [7] stood at 38.8%.
Take `CC(C)(C)c1cc2c(O)c(c1)Cc1cc(C(C)(C)C)cc(c1OC/C=C/C(=O)NCCCCCO)Cc1cc(C(C)(C)C)cc(c1O)Cc1cc(C(C)(C)C)cc(c1OC/C=C/C(=O)NCCCCCO)C2`: the inhibition at 10 µM in data set [1] is 37.6%; in data set [3] it was 23.9%; in data set [5], 39.5%; in data set [6], 11.8%; in data set [8], less than 0%. Further, the IC50 in data set [2] is more than 100 µM; in data set [4] it was 94.3 µM. The inhibition at 72 h, 10 µM in data set [7] stood at 23.8%.
Turning to `CC(Oc1c2cc(C(C)(C)C)cc1Cc1cc(C(C)(C)C)cc(c1O)Cc1cc(C(C)(C)C)cc(c1OC(C)C(=O)N(CCO)CCO)Cc1cc(C(C)(C)C)cc(c1O)C2)C(=O)N(CCO)CCO` (centres undefined), the inhibition at 10 µM in data set [1] turned out to be 91.2%; in data set [3], 65.7%; in data set [5], 91.3%; in data set [6] it was 93.8%; in data set [8], 96.2%. Also, the IC50 amounted to 3.75 µM in data set [2] and 1.63 µM in data set [4]. For the same compound, in data set [7], the inhibition at 72 h, 10 µM was determined as 57.2%.
As to `CC(C)(C)c1cc2c(O)c(c1)Cc1cc(C(C)(C)C)cc(c1OCC(=O)NCCO)Cc1cc(C(C)(C)C)cc(c1O)Cc1cc(C(C)(C)C)cc(c1OCC(=O)NCCO)C2`, the inhibition at 10 µM in data set [1] stood at 92.3%; in data set [3], 66.2%; in data set [5] it was 90.5%; in data set [6], 89.9%; in data set [8], 92.2%. Also, the results for the IC50 in data set [2] and in data set [4] were 3.84 µM and 4.53 µM, respectively. Besides, the inhibition at 72 h, 10 µM in data set [7] is 19.6%.
Take `CC(C)(C)c1cc2c(O)c(c1)Cc1cc(C(C)(C)C)cc(c1OCCCCCC(=O)NCCO)Cc1cc(C(C)(C)C)cc(c1O)Cc1cc(C(C)(C)C)cc(c1OCCCCCC(=O)NCCO)C2`: the inhibition at 10 µM in data set [1] is 61.6%; in data set [3], 17.3%; in data set [5], 34.3%; in data set [6], 22.6%; in data set [8], less than 0%. The IC50 is more than 100 µM in data set [2] and 13 µM in data set [4]. Also, the inhibition at 72 h, 10 µM in data set [7] is less than 0%.
Regarding `CC(Oc1c2cc(C(C)(C)C)cc1Cc1cc(C(C)(C)C)cc(c1O)Cc1cc(C(C)(C)C)cc(c1OC(C)C(=O)NCCCO)Cc1cc(C(C)(C)C)cc(c1O)C2)C(=O)NCCCO` (centres undefined), the inhibition at 10 µM in data set [1] stood at 91.2%; in data set [3] it was 58.4%; in data set [5] it was 90.1%; in data set [6], 69%; in data set [8] it was 82.5%. Also, the IC50 stood at 1.76 µM in data set [2] and 1.31 µM in data set [4]. The inhibition at 72 h, 10 µM in data set [7] came out at 48.2%.
In the case of `CC(C)(C)c1cc2c(O)c(c1)Cc1cc(C(C)(C)C)cc(c1OC/C=C/C(=O)NCCO)Cc1cc(C(C)(C)C)cc(c1O)Cc1cc(C(C)(C)C)cc(c1OC/C=C/C(=O)NCCO)C2`, the inhibition at 10 µM in data set [1] came out at 63.5%; in data set [3] it was 27.8%; in data set [5] it was 35%; in data set [6], 19.8%; in data set [8], 38%. Moreover, the IC50 in data set [2] came to 6.29 µM; in data set [4], 5.46 µM. The inhibition at 72 h, 10 µM in data set [7] amounted to 8.9%.
On to `CCC(Oc1c2cc(C(C)(C)C)cc1Cc1cc(C(C)(C)C)cc(c1O)Cc1cc(C(C)(C)C)cc(c1OC(CC)C(=O)NCCCCCO)Cc1cc(C(C)(C)C)cc(c1O)C2)C(=O)NCCCCCO` (centres undefined), for which the inhibition at 10 µM in data set [1] is 52.7%; in data set [3], 26.3%; in data set [5], 63.7%; in data set [6], 9.3%; in data set [8], less than 0%. In addition, the values for the IC50 in data set [2] and in data set [4] were 3.78 µM and 1.36 µM, respectively. For the same compound, the inhibition at 72 h, 10 µM in data set [7] was less than 0%.
For the compound `CC(C)(C)c1cc2c(O)c(c1)Cc1cc(C(C)(C)C)cc(c1OCCCC(=O)NCCO)Cc1cc(C(C)(C)C)cc(c1O)Cc1cc(C(C)(C)C)cc(c1OCCCC(=O)NCCO)C2`, the inhibition at 10 µM is 54.4% in data set [1]; 40.1% in data set [3]; 25.8% in data set [5]; 28.7% in data set [6]; 16.2% in data set [8]. Moreover, the IC50 stood at 13.7 µM in data set [2] and 11.7 µM in data set [4]. Also, the inhibition at 72 h, 10 µM in data set [7] is 57%.
For `CC(C)(C)c1cc2c(O)c(c1)Cc1cc(C(C)(C)C)cc(c1OCCCCCC(=O)NCCCO)Cc1cc(C(C)(C)C)cc(c1O)Cc1cc(C(C)(C)C)cc(c1OCCCCCC(=O)NCCCO)C2`, the inhibition at 10 µM in data set [1] is 56.5%; in data set [3], 17.9%; in data set [5] it was 30.1%; in data set [6], 9.3%; in data set [8] it was less than 0%. Also, the results for the IC50 in data set [2] and in data set [4] were more than 100 µM and 42.8 µM, respectively. Also, the inhibition at 72 h, 10 µM in data set [7] is less than 0%.
Consider `CC(C)(C)c1cc2c(O)c(c1)Cc1cc(C(C)(C)C)cc(c1OCCCC(=O)N(CCO)CCO)Cc1cc(C(C)(C)C)cc(c1O)Cc1cc(C(C)(C)C)cc(c1OCCCC(=O)N(CCO)CCO)C2`, for which the inhibition at 10 µM in data set [1] came to 88.1%; in data set [3], 61.5%; in data set [5] it was 80%; in data set [6], 62.8%; in data set [8] it was 60.1%. For the same compound, the IC50 in data set [2] was 3.81 µM; in data set [4], 5.81 µM. In data set [7], the inhibition at 72 h, 10 µM is less than 0%.
Regarding `CC(C)(C)c1cc2c(O)c(c1)Cc1cc(C(C)(C)C)cc(c1OCCCCCC(=O)N(CCO)CCO)Cc1cc(C(C)(C)C)cc(c1O)Cc1cc(C(C)(C)C)cc(c1OCCCCCC(=O)N(CCO)CCO)C2`, the inhibition at 10 µM in data set [1] was 46.8%; in data set [3], 22.2%; in data set [5], 34.5%; in data set [6], 17.3%; in data set [8], 1.44%. Further, the IC50 in data set [2] and in data set [4] was more than 100 µM throughout. Further, in data set [7], the inhibition at 72 h, 10 µM was less than 0%.
Consider `CC(C)(C)c1cc2c(O)c(c1)Cc1cc(C(C)(C)C)cc(c1OCCCC(=O)NCCCCCO)Cc1cc(C(C)(C)C)cc(c1O)Cc1cc(C(C)(C)C)cc(c1OCCCC(=O)NCCCCCO)C2`, for which the inhibition at 10 µM was 50.5% in data set [1]; 33.1% in data set [3]; 34.4% in data set [5]; 25% in data set [6]; less than 0% in data set [8]. Further, the IC50 in data set [2] was found to be 7.64 µM; in data set [4], 9.15 µM. The inhibition at 72 h, 10 µM in data set [7] was found to be 5.8%.
On to `CCC(Oc1c2cc(C(C)(C)C)cc1Cc1cc(C(C)(C)C)cc(c1O)Cc1cc(C(C)(C)C)cc(c1OC(CC)C(=O)NCCCO)Cc1cc(C(C)(C)C)cc(c1O)C2)C(=O)NCCCO` (centres undefined), for which the inhibition at 10 µM in data set [1] is 80.2%; in data set [3] it was 41.5%; in data set [5] it was 80.1%; in data set [6] it was 20.3%; in data set [8], less than 0%. Moreover, the IC50 in data set [2] turned out to be 0.96 µM; in data set [4], 0.85 µM. In data set [7], the inhibition at 72 h, 10 µM is less than 0%.
As to `CC(Oc1c2cc(C(C)(C)C)cc1Cc1cc(C(C)(C)C)cc(c1O)Cc1cc(C(C)(C)C)cc(c1OC(C)C(=O)NCCCCCO)Cc1cc(C(C)(C)C)cc(c1O)C2)C(=O)NCCCCCO` (centres undefined), the inhibition at 10 µM in data set [1] is 86.8%; in data set [3] it was 49.6%; in data set [5] it was 89.3%; in data set [6] it was 19.8%; in data set [8], less than 0%. The IC50 in data set [2] is 2.98 µM; in data set [4], 3.26 µM. In addition, the inhibition at 72 h, 10 µM in data set [7] stood at 31.8%.
As to `CC(Oc1c2cc(C(C)(C)C)cc1Cc1cc(C(C)(C)C)cc(c1O)Cc1cc(C(C)(C)C)cc(c1OC(C)C(=O)NCCO)Cc1cc(C(C)(C)C)cc(c1O)C2)C(=O)NCCO` (centres undefined), the inhibition at 10 µM amounted to 91.8% in data set [1]; 47.3% in data set [3]; 89.2% in data set [5]; 67.9% in data set [6]; 76.8% in data set [8]. The IC50 in data set [2] was found to be 2.5 µM; in data set [4], 1.18 µM. In addition, the inhibition at 72 h, 10 µM in data set [7] was found to be 35.7%.
